How the values were obtained:
[1] = target: Serine/threonine-protein kinase MARK2 (Homo sapiens) (UniProt Q7KZI7); settings: at 10 µM
[2] = target: Histone acetyltransferase p300 (Homo sapiens) (UniProt Q09472); experiment: Selectivity interaction (Human bromodomain panel (DSF assay)) EUB0000233b EP300
[3] = target: Cyclin-dependent kinase 18 (Homo sapiens) (UniProt Q07002); settings: at 10 µM
[4] = target: Cyclin-dependent kinase 4/cyclin D1 (Homo sapiens) (UniProt P11802+P24385); settings: at 10 µM
[5] = target: T1, Mitogen-activated protein kinase kinase kinase 3 (Homo sapiens) (UniProt Q99759); experiment: Selectivity interaction (LanthaScreen Eu Kinase Binding Assay) EUB0001632a MAP3K3; settings: at 10 µM
T1 sequence (whole entry): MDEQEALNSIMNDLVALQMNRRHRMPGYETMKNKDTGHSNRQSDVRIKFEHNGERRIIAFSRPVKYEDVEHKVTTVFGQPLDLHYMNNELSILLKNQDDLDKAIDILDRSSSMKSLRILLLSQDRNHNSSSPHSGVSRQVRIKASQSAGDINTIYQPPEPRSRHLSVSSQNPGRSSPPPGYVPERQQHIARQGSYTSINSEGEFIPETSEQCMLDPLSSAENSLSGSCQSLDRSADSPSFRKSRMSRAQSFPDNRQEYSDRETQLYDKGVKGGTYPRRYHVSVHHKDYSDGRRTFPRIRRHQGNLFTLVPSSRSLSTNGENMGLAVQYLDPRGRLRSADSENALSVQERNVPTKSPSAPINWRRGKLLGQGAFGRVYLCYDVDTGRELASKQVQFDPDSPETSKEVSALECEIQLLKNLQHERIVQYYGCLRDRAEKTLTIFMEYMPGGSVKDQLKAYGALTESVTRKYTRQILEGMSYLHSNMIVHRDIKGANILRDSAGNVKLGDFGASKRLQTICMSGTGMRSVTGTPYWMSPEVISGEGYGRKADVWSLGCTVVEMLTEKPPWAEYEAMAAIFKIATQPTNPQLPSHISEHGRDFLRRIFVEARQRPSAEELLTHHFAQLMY

[6] = target: T2, Mitogen-activated protein kinase kinase kinase 7 (Homo sapiens) (UniProt O43318); experiment: Selectivity interaction (ActivX KiNativ screen (kinase selectivity in THP-1 cell lysates)) EUB0000639a MAP3K7; assay type: subcellular; settings: lysate
T2 sequence (whole entry): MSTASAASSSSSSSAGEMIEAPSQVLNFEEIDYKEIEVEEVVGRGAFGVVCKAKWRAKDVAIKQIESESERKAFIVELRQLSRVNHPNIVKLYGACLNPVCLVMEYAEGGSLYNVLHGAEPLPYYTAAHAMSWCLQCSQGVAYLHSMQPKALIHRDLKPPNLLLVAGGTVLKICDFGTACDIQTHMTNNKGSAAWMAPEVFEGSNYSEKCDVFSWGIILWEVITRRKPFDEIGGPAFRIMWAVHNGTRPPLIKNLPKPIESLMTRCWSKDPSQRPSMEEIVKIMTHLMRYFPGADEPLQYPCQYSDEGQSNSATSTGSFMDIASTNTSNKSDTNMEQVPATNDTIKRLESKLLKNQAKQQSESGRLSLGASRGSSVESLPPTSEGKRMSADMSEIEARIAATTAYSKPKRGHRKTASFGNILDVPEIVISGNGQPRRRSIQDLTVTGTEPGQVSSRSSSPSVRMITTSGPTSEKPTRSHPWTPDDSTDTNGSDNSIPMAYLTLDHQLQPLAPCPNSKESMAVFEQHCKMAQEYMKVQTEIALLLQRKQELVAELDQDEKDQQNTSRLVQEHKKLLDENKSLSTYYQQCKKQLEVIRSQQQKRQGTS

[7] = target: 5'-AMP-activated protein kinase catalytic subunit alpha-1 (Homo sapiens, UniProt Q13131); experiment: Selectivity interaction (ActivX KiNativ screen (kinase selectivity in THP-1 cell lysates)) EUB0000639a PRKAA1; assay type: subcellular; settings: lysate
[8] = target: T3, Serine/threonine-protein kinase 17A (Homo sapiens) (UniProt Q9UEE5); experiment: Selectivity interaction (KinomeScan (DiscoverX)) EUB0000607a STK17A; settings: at 10 µM
T3 sequence (whole entry): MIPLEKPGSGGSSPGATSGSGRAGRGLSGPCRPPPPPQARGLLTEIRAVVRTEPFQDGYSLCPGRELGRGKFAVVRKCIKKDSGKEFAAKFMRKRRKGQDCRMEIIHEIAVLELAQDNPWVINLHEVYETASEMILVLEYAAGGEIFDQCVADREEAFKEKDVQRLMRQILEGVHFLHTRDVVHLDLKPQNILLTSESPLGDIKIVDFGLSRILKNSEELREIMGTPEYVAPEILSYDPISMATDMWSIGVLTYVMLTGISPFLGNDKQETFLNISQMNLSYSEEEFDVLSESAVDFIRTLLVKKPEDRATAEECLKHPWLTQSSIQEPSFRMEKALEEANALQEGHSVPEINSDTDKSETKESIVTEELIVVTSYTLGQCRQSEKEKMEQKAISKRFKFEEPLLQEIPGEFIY

[9] = target: Protein-tyrosine kinase 2-beta (Homo sapiens) (UniProt Q14289); experiment: Selectivity interaction (Kinase screening (Nanosyn)) EUB0000604a PTK2B
[10] = target: T4, Phosphatidylinositol 5-phosphate 4-kinase type-2 alpha (Homo sapiens) (UniProt P48426); experiment: Selectivity interaction (ActivX KiNativ screen (ex vivo kinase selectivity in human PBMCs)) EUB0001619a PIP4K2A; assay type: cell-based; settings: PBMC, at 1 µM
T4 sequence (whole entry): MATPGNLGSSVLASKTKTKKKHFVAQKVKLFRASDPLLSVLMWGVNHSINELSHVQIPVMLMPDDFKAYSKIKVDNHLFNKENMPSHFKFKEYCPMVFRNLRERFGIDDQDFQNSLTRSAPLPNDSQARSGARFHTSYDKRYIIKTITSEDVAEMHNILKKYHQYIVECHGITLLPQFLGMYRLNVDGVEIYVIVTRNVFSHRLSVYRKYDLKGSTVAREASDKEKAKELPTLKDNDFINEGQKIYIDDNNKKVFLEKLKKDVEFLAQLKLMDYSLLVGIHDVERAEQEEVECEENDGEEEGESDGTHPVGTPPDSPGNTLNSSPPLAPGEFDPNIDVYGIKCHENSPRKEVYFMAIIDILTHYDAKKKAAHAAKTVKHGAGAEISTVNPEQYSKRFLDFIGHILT

Sequence of 5'-AMP-activated protein kinase catalytic subunit alpha-1 (Q13131 whole entry, looked up): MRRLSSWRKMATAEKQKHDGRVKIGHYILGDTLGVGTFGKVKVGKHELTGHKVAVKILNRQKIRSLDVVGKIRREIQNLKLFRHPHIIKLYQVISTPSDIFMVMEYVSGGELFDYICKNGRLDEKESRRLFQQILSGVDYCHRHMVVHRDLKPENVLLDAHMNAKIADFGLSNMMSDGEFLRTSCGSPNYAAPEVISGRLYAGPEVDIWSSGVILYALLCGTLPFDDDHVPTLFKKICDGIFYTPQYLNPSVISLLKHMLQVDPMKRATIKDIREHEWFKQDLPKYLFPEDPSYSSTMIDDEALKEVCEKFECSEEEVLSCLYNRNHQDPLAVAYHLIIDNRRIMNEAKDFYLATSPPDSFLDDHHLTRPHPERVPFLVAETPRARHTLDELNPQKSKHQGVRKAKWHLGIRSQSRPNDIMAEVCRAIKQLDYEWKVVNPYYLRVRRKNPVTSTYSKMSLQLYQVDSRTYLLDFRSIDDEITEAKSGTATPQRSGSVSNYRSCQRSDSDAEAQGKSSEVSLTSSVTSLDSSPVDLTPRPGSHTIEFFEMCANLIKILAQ
Sequence of Serine/threonine-protein kinase MARK2 (Homo sapiens) (Q7KZI7 whole entry): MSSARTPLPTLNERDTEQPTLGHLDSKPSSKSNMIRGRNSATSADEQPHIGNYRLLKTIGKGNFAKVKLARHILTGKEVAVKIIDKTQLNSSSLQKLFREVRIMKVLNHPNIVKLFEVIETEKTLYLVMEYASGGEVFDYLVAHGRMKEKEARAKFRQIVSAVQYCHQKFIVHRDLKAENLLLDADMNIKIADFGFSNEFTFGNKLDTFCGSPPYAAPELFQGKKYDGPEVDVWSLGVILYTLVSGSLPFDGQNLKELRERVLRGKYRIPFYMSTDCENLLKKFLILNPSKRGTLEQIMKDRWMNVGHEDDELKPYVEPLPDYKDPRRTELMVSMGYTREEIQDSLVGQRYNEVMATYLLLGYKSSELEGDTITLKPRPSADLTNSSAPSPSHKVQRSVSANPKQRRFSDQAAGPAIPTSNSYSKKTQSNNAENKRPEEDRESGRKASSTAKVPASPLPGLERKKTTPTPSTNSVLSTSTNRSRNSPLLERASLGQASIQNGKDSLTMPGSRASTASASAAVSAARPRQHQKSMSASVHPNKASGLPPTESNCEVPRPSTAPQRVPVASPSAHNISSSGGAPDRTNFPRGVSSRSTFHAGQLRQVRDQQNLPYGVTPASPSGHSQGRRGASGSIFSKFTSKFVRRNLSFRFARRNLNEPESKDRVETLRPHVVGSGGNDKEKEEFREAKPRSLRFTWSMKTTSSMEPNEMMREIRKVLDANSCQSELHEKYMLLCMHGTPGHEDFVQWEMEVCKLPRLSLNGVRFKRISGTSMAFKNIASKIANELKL
Sequence of Protein-tyrosine kinase 2-beta (Homo sapiens) (Q14289 whole entry, looked up): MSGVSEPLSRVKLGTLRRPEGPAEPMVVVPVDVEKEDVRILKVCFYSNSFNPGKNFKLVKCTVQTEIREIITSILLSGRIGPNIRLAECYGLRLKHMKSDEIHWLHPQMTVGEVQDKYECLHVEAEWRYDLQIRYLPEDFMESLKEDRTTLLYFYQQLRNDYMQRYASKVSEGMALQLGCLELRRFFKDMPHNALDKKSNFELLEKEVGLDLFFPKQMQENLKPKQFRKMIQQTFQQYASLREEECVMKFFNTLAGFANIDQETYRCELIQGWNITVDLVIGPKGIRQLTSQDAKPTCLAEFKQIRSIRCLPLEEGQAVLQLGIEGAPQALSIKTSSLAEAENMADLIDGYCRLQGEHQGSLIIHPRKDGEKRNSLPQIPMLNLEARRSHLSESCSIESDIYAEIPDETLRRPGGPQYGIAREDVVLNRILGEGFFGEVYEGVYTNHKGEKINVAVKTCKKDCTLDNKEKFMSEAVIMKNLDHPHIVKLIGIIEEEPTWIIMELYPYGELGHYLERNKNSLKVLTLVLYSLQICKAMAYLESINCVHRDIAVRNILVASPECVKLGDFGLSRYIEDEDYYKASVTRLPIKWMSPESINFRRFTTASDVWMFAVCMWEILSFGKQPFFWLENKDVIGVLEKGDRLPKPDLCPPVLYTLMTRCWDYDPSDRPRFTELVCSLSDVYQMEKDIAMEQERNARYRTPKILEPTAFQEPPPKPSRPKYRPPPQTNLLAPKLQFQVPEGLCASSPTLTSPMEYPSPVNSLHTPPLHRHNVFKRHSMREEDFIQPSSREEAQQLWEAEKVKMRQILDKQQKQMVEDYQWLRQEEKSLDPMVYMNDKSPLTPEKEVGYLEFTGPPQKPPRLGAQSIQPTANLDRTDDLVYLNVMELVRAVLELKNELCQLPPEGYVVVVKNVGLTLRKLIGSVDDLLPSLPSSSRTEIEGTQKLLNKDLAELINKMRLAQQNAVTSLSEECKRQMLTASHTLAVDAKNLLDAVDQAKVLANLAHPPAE
Sequence of Histone acetyltransferase p300 (Homo sapiens) (Q09472 whole entry): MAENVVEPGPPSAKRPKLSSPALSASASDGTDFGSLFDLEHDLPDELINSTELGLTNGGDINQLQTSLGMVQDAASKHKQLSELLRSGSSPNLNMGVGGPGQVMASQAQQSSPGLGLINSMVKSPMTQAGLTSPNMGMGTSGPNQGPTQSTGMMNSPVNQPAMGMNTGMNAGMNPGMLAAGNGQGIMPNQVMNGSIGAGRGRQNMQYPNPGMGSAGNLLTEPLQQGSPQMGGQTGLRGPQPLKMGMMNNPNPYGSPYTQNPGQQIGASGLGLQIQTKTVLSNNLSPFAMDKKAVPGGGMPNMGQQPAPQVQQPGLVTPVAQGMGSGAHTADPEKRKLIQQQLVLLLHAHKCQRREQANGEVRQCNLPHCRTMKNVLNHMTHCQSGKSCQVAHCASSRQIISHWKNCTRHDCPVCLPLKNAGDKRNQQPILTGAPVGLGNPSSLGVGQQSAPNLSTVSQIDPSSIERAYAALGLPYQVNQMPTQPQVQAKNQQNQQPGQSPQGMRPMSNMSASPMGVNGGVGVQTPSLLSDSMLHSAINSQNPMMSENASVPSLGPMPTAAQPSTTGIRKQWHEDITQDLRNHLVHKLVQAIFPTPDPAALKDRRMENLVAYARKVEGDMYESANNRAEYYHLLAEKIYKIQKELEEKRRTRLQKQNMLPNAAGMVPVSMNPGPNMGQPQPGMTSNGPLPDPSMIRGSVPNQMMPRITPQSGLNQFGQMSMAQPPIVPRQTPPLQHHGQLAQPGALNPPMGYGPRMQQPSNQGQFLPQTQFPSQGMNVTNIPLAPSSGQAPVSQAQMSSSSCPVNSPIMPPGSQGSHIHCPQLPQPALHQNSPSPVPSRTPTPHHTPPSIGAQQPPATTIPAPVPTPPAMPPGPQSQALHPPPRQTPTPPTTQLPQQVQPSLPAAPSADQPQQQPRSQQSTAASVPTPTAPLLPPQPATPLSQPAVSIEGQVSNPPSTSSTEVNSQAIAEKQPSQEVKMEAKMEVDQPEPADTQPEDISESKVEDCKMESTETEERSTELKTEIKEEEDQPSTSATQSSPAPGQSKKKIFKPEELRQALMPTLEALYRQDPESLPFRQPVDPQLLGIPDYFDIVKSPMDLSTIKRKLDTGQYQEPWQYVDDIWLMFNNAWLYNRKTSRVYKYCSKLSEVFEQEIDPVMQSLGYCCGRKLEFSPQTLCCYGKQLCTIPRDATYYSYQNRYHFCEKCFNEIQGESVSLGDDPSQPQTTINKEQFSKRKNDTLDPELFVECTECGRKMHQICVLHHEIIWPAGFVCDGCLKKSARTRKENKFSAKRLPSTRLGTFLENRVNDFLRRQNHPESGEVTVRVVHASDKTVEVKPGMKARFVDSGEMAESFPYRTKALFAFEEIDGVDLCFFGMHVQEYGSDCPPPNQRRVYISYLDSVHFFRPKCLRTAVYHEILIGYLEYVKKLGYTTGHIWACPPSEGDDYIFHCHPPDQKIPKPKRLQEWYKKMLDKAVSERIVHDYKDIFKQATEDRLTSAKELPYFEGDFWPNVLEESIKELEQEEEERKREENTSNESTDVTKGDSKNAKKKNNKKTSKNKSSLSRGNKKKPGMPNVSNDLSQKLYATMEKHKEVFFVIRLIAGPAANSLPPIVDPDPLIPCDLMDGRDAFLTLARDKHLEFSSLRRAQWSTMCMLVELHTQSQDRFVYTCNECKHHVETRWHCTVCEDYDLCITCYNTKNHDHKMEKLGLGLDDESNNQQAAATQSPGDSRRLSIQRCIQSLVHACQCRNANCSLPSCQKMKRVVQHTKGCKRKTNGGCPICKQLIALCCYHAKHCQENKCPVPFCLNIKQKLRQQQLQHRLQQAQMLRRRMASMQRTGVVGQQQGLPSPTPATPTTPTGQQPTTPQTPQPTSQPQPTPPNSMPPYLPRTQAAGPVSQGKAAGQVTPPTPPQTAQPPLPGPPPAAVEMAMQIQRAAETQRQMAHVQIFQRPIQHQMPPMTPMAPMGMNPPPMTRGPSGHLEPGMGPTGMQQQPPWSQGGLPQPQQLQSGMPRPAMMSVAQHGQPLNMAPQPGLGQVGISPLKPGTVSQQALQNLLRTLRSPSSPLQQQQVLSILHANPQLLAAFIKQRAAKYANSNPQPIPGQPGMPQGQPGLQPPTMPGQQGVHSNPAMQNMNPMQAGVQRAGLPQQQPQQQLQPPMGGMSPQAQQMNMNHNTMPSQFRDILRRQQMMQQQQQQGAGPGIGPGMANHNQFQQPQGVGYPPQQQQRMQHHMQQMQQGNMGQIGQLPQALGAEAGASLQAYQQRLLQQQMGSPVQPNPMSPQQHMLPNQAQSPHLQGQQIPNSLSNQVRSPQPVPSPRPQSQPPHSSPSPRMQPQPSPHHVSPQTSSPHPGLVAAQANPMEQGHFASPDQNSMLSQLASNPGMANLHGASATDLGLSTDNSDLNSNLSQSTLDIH

Work on `CCN(CC)CCCCNc1ncc2cc(-c3cc(OC)cc(OC)c3)c(NC(=O)NC(C)(C)C)nc2n1` yielded a % of control [1] of 100%.

Work on `CN(C)CCCOc1ccc(-c2cc(NCCCn3cccn3)nc(S(C)(=O)=O)n2)cc1` yielded a dTM [2] of under 2 K.

With `Cc1cc([C@@H](C)Nc2ccccc2C(=O)O)c2nc(N3CCOCC3)cc(=O)n2c1` [AZD-6482] the % of control [3] was 100% and the % of control [4] was 100%.

`Cn1cc(-n2cnc3c(NCc4nc5cc(Cl)c(Cl)cc5[nH]4)nc(N4CCOCC4)nc32)cn1` gave a % of inhibition [5] of -26.4%.

`CC[C@@H]1[C@H](F)C(=O)N[C@@H]1COc1nccc2cc(C(N)=O)c(OC)cc12` [ZIMLOVISERTIB] gave a % of inhibition ([6]; at 0.01 µM) of 6.8%, a % of inhibition ([6]; at 0.04 µM) of 3.8% and a % of inhibition ([6]; at 0.2 µM) of -2.9%. For the same compound, the % of inhibition ([6]; at 1 µM) was -3.1%, the % of inhibition ([6]; at 5 µM) was -8.6% and the % of inhibition ([7]; at 0.01 µM) was 16%. For the same compound, the % of inhibition ([7]; at 0.04 µM) was 21.7%, the % of inhibition ([7]; at 0.2 µM) was 11.2% and the % of inhibition ([7]; at 1 µM) was 11.8%. It also gave a % of inhibition ([7]; at 5 µM) of 28.8%.

For `CNC(=O)Nc1ccc(-c2nc(N3CC4CCC(C3)O4)c3cnn(C4CCC5(CC4)OCCO5)c3n2)cc1`, the % of control [8] was 100%.

Work on `Cc1cnc(Nc2ccc(F)cc2Cl)nc1-c1c[nH]c(C(=O)N[C@H](CO)c2cccc(Cl)c2)c1` yielded a % of inhibition [9] of 6%.

For `N#Cc1cccc(-c2c[nH]c3ncnc(N4CCOCC4)c23)c1`, the % of inhibition [10] was 15%.
